These are literature values, as cited in patent US9393243B1 (priority 2015, dated 2016).

Where a name gives a salt, the structure may show the parent alone. Read-outs that look alike come from different tables or passages of the source.

For data set [1] the following is noted: aqueous solutions, about 0.2 to about 1 weight percent.
In data set [2] the test system is a variety of bacterial pathogens. The following applies: typical value; T. L. Ke et al. 2001.

As for `O=C(O)c1cn(C2CC2)c2cc(N3CCNCC3)c(F)cc2c1=O` [ciprofloxacin HCl], the “pH at which precipitation was observed” value in data set [1] (5° C.) was “above 5”; in data set [1] (room temperature), “above 5.5”.
Take gentamycin: the MIC90 entry in data set [2] is “around 10 μg/gm”.
On to `O=C(O)c1cn(C2CC2)c2cc(N3CCNCC3)c(F)cc2c1=O` [ciprofloxacin, 1-cyclopropyl-6-fluoro-1,4-dihydro-4-oxo-7-(1-piperazinyl)-3-quinolinecarboxylic acid], for which, in data set [2], the MIC90 entry is listed as “around 0.5 μg/g”.
